According to ChEMBL document CHEMBL4842346, “Improving the metabolic stability of antifungal compounds based on a scaffold hopping strategy: Design, synthesis, and structure-activity relationship studies of dihydrooxazole derivatives” (Eur J Med Chem, 2021):
≈ marks a conversion by molar mass, not a printed value.

Legend:
Candida albicans [1] = experiment: Antifungal activity against Candida albicans SC5314 assessed as inhibition of fungal growth by NCCLS protocol based method; assay type: functional
[2] = Metabolic stability in human liver microsomes assessed as half life at 100 uM in the presence of NADPH measured upto 60 mins by LC-MS/MS analysis; assay type: ADME, Microsome
Candida albicans [3] = experiment: Antifungal activity against Candida albicans CPCC400523 assessed as inhibition of fungal growth by NCCLS protocol based method; assay type: functional
Aspergillus fumigatus = experiment: Antifungal activity against Aspergillus fumigatus CGMCC3.7795 assessed as inhibition of fungal growth by NCCLS protocol based method; assay type: functional
Cryptococcus neoformans [4] = experiment: Antifungal activity against Cryptococcus neoformans CGMCC2.3161 assessed as inhibition of fungal growth by NCCLS protocol based method; assay type: functional
Candida albicans [5] = experiment: Antifungal activity against Candida albicans GIM2.194 assessed as inhibition of fungal growth by NCCLS protocol based method; assay type: functional
Candida albicans [6] = experiment: Antifungal activity against fluconazole and itraconazole resistant Candida albicans 17# assessed as inhibition of fungal growth by NCCLS protocol based method; assay type: functional
Candida albicans [7] = experiment: Antifungal activity against fluconazole resistant Candida albicans CaR assessed as inhibition of fungal growth by NCCLS protocol based method; assay type: functional
Pichia kudriavzevii = experiment: Antifungal activity against Candida krusei GIM2.1 assessed as inhibition of fungal growth by NCCLS protocol based method; assay type: functional
Candida parapsilosis = experiment: Antifungal activity against Candida parapsilosis GIM2.190 assessed as inhibition of fungal growth by NCCLS protocol based method; assay type: functional; settings: Lodderomyces parapsilosis
Candida tropicalis = experiment: Antifungal activity against Candida tropicalis GIM2.183 assessed as inhibition of fungal growth by NCCLS protocol based method; assay type: functional
Cryptococcus neoformans [8] = experiment: Antifungal activity against Cryptococcus neoformans GIM2.209 assessed as inhibition of fungal growth by NCCLS protocol based method; assay type: functional

SMILES: CC[C@H](C)[C@@H](Cn1ccnc1)NC(=O)c1ccc(-c2ccccc2)cc1F
- MIC (Candida albicans [1]): < 0.03 µg/mL
- half-life at 100 µM [2]: 3.6 min
- MIC (Candida albicans [3]): < 0.03 µg/mL
- MIC (Aspergillus fumigatus): 2 µg/mL (≈ 5.47 µM)
- MIC (Cryptococcus neoformans [4]): 1 µg/mL (≈ 2.74 µM)

SMILES: Fc1cccc(-c2ccc(C3=NC(Cn4cncn4)(c4ccc(Cl)cc4)CO3)cc2)c1 (stereo not given)
- MIC (Candida albicans [1]): < 0.03 µg/mL
- MIC (Candida albicans [5]): < 0.03 µg/mL
- MIC (Candida albicans [6]): > 64 µg/mL
- MIC (Aspergillus fumigatus): > 64 µg/mL
- MIC (Candida albicans [7]): 0.25 µg/mL (≈ 0.578 µM)
- MIC (Pichia kudriavzevii): 0.25 µg/mL (≈ 0.578 µM)
- MIC (Candida parapsilosis): 4 µg/mL (≈ 9.24 µM)
- MIC (Candida tropicalis): 0.06 µg/mL (≈ 0.139 µM)

SMILES: c1ccc(-c2ccc(C3=NC(Cn4ccnc4)(c4ccccc4)CO3)cc2)cc1 (stereo not given)
- MIC (Candida albicans [1]): < 0.125 µg/mL
- half-life at 100 µM [2]: 106 min
- MIC (Cryptococcus neoformans [8]): 32 µg/mL (≈ 84.3 µM)
- MIC (Candida albicans [5]): < 0.125 µg/mL
- MIC (Aspergillus fumigatus): 1 µg/mL (≈ 2.64 µM)
- MIC (Candida tropicalis): < 0.125 µg/mL

SMILES: Fc1ccc(C2(Cn3cncn3)COC(c3ccc(-c4ccccc4F)cc3)=N2)c(F)c1 (stereo not given)
- MIC (Candida albicans [1]): < 0.03 µg/mL
- MIC (Candida albicans [5]): 0.06 µg/mL (≈ 0.138 µM)
- MIC (Candida albicans [6]): > 64 µg/mL
- MIC (Aspergillus fumigatus): > 64 µg/mL
- MIC (Candida albicans [7]): 0.5 µg/mL (≈ 1.15 µM)
- MIC (Pichia kudriavzevii): 0.25 µg/mL (≈ 0.575 µM)
- MIC (Candida parapsilosis): 4 µg/mL (≈ 9.21 µM)
- MIC (Candida tropicalis): 0.06 µg/mL (≈ 0.138 µM)

SMILES: c1ccc(-c2ccc(C3=N[C@@H](Cn4ccnc4)CO3)cc2)cc1
- MIC (Candida albicans [1]): 1 µg/mL (≈ 3.3 µM)
- half-life at 100 µM [2]: 23.2 min
- MIC (Candida albicans [3]): 8 µg/mL (≈ 26.4 µM)
- MIC (Aspergillus fumigatus): 1 µg/mL (≈ 3.3 µM)
- MIC (Cryptococcus neoformans [4]): > 64 µg/mL

SMILES: Fc1cccc(-c2ccc(C3=NC(Cn4cncn4)(c4ccc(F)cc4F)CO3)cc2)c1 (stereo not given)
- MIC (Candida albicans [1]): < 0.03 µg/mL
- MIC (Candida albicans [5]): 0.06 µg/mL (≈ 0.138 µM)
- MIC (Candida albicans [6]): > 64 µg/mL
- MIC (Aspergillus fumigatus): > 64 µg/mL
- MIC (Candida albicans [7]): 0.5 µg/mL (≈ 1.15 µM)
- MIC (Pichia kudriavzevii): 0.25 µg/mL (≈ 0.575 µM)
- MIC (Candida parapsilosis): > 64 µg/mL
- MIC (Candida tropicalis): 0.06 µg/mL (≈ 0.138 µM)
